A short description of experiment [1]: Fluorescence lifetime glucose responsive assay (10 mM PBS, pH 7.4, 298 K). Particulars: Ex 450 nm.
A short description of experiment [2]: Fluorescent hydrogel phase glucose responsive assay (10 mM PBS, pH 7.4, 310 K). The settings on record: 20 mM D-glucose, GBM2 10 uM, FIM 1 uM, Ex 470/Emmax 530 nm. The procedure: The fluorescence spectrum of the corresponding hydrogel, already swollen in 200 μL of 10 mM PBS, in a well plate was recorded by exciting at the designated excitation frequency and monitoring at the typical emission maximum (Emmax). The PBS top solution was removed either by micropipette or by decanting onto an absorbent material. A 200 μL solution of D-glucose (in 10 mM PBS) at the required concentration was added to each hydrogel in the well plate and the system allowed to reach equilibrium. The emission spectra for each well were collected after this and compared to the original baseline emission, monitoring at the typical emission maximum (Emmax), and the percentage increase or decrease recorded. The change in emission was recorded for each hydrogel in the well plate (up to 96 individual hydrogel sensors) or an average of all wells was used. The hydrogel bound assays were then investigated for reproducibility by cycling with solutions of PBS or D-glucose. This was achieved by removal of the previous top solution (e.g. D-glucose) by micropipette or decanting onto an absorbent material and replacing with another solution (e.g. 10 mM PBS). […] Emission spectra acquired using a Clariostar plus plate reader.
(§1) Hydroxyethylmethacrylate (2.85 g), TEGDMA (0.15 g), VAZO-44 (0.12 mg), ethylene glycol (1.06 g) and water (1.33 g) were added to a glass vial and vortexed/sonicated until a homogeneous solution. Concentrated aliquots (<50 μL) of the appropriate GBM and FIM from pre-made stock solutions were added to give the required final concentrations of GBM and FIM (i.e. 50 μL of GBM stock solution at 1 mM gives a final GBM concentration of 10 μM in the pre-gel solution). A 50 μL aliquot of this GBM and FIM containing pre-gel solution was pipetted into each well of a transparent flat-bottomed polystyrene 96 well plate. 100 μL of n-butanol was layered on top of the pre-gel solution in each well plate and each well plate covered with a loose transparent well plate lid. The well plate was then placed in a nitrogen flushed desiccator, which was then placed into a pre-heated oven at 45° C. for 4 hours. The well plates were then removed from the oven, allowed to cool to RT and the top solution removed by decanting onto an absorbent material. The hydrogels were then washed and swelled by submerging in one litre of pure water or 10 mM PBS for 24 hours. Each well within the well plate containing hydrogel bound assay was then washed with D-glucose (50 mM) and then 10 mM PBS multiple times until the observed fluorescence emission stabilised to give a baseline emission value in 10 mM PBS. These hydrogels were then used for determining assay performance and reversibility studies.
as §1, with “(1.95” for “(2.85”, “PEGDA (0.57” for “TEGDMA (0.15”, “(0.04” for “(0.12”, “200 mM methyl-p-D-glucopyranoside (aqueous, 1.39” for “water (1.33”, “FIM.” for “FIM (i.e. 50 μL of GBM stock solution at 1 mM gives a final GBM concentration of 10 μM in the pre-gel solution).”, “hours.” for “hours. Each well within the well plate containing hydrogel bound assay was then washed with D-glucose (50 mM) and then 10 mM PBS multiple times until the observed fluorescence emission stabilised to give a baseline emission value in 10 mM PBS. These hydrogels were then used for determining assay performance and reversibility studies.”

Experiment [3] is described as follows: Fluorescent solution phase glucose responsive assay (pH 7.4, 298 K). A digest of the protocol: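 Glucose binding molecule and fluorescent inhibitor molecule mixed in defined media at pH 7.4 and 298 K unless stated; baseline emission recorded, then D-glucose added stepwise to set final concentrations, e.g. 10 mM. After equilibration, percent change in emission at Emmax versus baseline recorded.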

Experiment [4] is described as follows: Fluorescent hydrogel phase glucose responsive assay (10 mM PBS, pH 7.4, 310 K). The settings on record: GBM39 50 uM, FIM 2 uM, Ex 470/Emmax 530 nm, hydrogel D (azido PEG star polymer).
The mark [5] stands for this setting: 5 mM glucose, GBM15 20 uM, FIM 5 uM.
Where [6] appears, read: 20 mM glucose, GBM15 20 uM, FIM 5 uM.
Setting [7] is: 40 mM glucose, GBM15 20 uM, FIM 5 uM.
The mark [8] stands for this setting: hydrogel C (polyacrylamide/bis-acrylamide).

Structures are written as SMILES.

For `CC(C)(C)OC(=O)NC(Cc1cn(CCCCC(C(=O)NCC(COC2OC(CO)C(O)C(O)C2O)c2ccccc2)[N+](C)(C)C)nn1)C(=O)NCCOCCOCCn1cc(-c2ccnc(-c3cc(-c4cn(CCOCCOc5cc(S(=O)(=O)[O-])c6ccc7c(S(=O)(=O)[O-])cc(S(=O)(=O)[O-])c8ccc5c6c87)nn4)ccn3)c2)nn1.[Ru+2].c1ccc(-c2ccccn2)nc1.c1ccc(-c2ccccn2)nc1` (stereo not shown) [FIM56], in experiment [1] (setting [5]), the “Fluorescence lifetime component τ1 for FIM and GBM at a particular glucose concentration” value (“Fluorescence lifetime component τ1” below) stood at 695 ns; the “Fluorescence lifetime component τ2 for FIM and GBM at a particular glucose concentration” value (shortened to “Fluorescence lifetime component τ2”) amounted to 3040 ns. Also, in experiment [1] (setting [6]), the “Fluorescence lifetime component τ1” value was determined as 660 ns; the “Fluorescence lifetime component τ2” value stood at 3210 ns. Moreover, in experiment [1] (setting [7]), the “Fluorescence lifetime component τ1” value is 625 ns; the “Fluorescence lifetime component τ2” value is on record as 3260 ns. In addition, in experiment [1] (FIM 5 uM), the “Lifetime component τ1 of FIM only” value worked out at 520 ns and the “Lifetime component τ2 of FIM only” value came out at 3620 ns. In experiment [1] (GBM15 20 uM, FIM 5 uM), the “Lifetime component τ1 of FIM after GBM addition” value amounted to 650 ns and the “Lifetime component τ2 of FIM after GBM addition” value came out at 2500 ns.
On to `C=CC(=O)NCCCC[C@@H](C(=O)Nc1ccc2c(c1)C(=O)OC21c2ccc(O)cc2Oc2cc(O)ccc21)n1cc(-c2ccc(CCO[C@@H]3O[C@H](CO)[C@@H](O)[C@H](O)[C@H]3O)cc2)nn1` [FIM22], for which the “Change in Emmax for FIM at a particular D-glucose concentration” value (“Change in Emmax for FIM” below) amounted to 10% in experiment [2] (hydrogel A (HEMA/TEGDMA)) and 15% in experiment [2] (setting [8]).
Turning to `C=CC(=O)NCCOCCOCCOCCOCCOCCOCCC(=O)NCCCC[C@@H](C(=O)Nc1ccc2c(c1)C(=O)OC21c2ccc(O)cc2Oc2cc(O)ccc21)n1cc(-c2ccc(CCO[C@@H]3O[C@H](C(=O)O)[C@@H](O)[C@H](O)[C@H]3O)cc2)nn1` [FIM25], the “Change in Emmax for FIM” value in experiment [2] (hydrogel A (HEMA/TEGDMA)) is reported as 12%.
As to `CN1c2cc3c(cc2C(CS(=O)(=O)[O-])=CC1(C)C)C(c1ccc(C(=O)NCc2cn(CCOCCOCCOCCNC(=O)[C@H](Cc4cn(CCOCCOCCOCCOc5ccc(CCO[C@@H]6O[C@H](CO)[C@@H](O)[C@H](O)[C@H]6O)cc5)nn4)NC(=O)OC(C)(C)C)nn2)cc1C(=O)[O-])=c1cc2c(cc1O3)=[N+](C)C(C)(C)C=C2CS(=O)(=O)[O-].[Na+].[Na+]` [FIM10], the “Change in Emmax for FIM” value was 65% in experiment [3] (5 mM D-glucose, GBM42 20 uM, FIM 5 uM, Ex 560/Emmax 610 nm, medium B (10 mM PBS)); 85% in experiment [3] (10 mM D-glucose, GBM42 20 uM, FIM 5 uM, Ex 560/Emmax 610 nm, medium B (10 mM PBS)); 105% in experiment [3] (20 mM D-glucose, GBM42 20 uM, FIM 5 uM, Ex 560/Emmax 610 nm, medium B (10 mM PBS)); −75% in experiment [3] (40 mM D-glucose, GBM40 5 uM, FIM 10 uM, Ex 560/Emmax 610 nm, medium B (10 mM PBS)); 110% in experiment [3] (40 mM D-glucose, GBM42 20 uM, FIM 5 uM, Ex 560/Emmax 610 nm, medium B (10 mM PBS)). The “Fluorescence lifetime component τ1” value in experiment [1] (20 mM glucose, GBM40 5 uM, FIM 10 uM) amounted to 580 ns. The “Lifetime component τ1 of FIM only” value in experiment [1] (FIM 10 uM) was determined as 575 ns. Further, the “Lifetime component τ1 of FIM after GBM addition” value in experiment [1] (GBM40 5 uM, FIM 10 uM) came to 620 ns.
With `C=CC(=O)NC(Cc1cn(CCOCCOc2ccc(CCO[C@@H]3O[C@H](CO)[C@@H](O)[C@H](O)[C@H]3O)cc2)nn1)C(=O)Nc1ccc2c(c1)C(=O)OC21c2ccc(O)cc2Oc2cc(O)ccc21` (stereo partly shown) [FIM21], in experiment [2] (hydrogel A (HEMA/TEGDMA)), the “Change in Emmax for FIM” value is recorded as 0%.
Turning to `C=CC(=O)NCCOCCOCCOCCOCCOCCOCCC(=O)NCCCC[C@@H](C(=O)Nc1ccc(CCO[C@@H]2O[C@H](CO)[C@@H](O)[C@H](O)[C@H]2O)cc1)n1cc(CNC(=O)c2ccc3c(c2)C(=O)OC32c3ccc(O)cc3Oc3cc(O)ccc32)nn1` [FIM23], the “Change in Emmax for FIM” value in experiment [2] (hydrogel A (HEMA/TEGDMA)) is 10%; in experiment [2] (setting [8]), 15%.
`C[N+](C)(C)[C@@H](CCCCn1cc(C[C@H](NC(=O)OC[C@@H]2[C@@H]3CCC#CCC[C@@H]32)C(=O)NCCOCCOCCn2cc(CNC(=O)c3ccc4c(c3)C(=O)OC43c4ccc(O)cc4Oc4cc(O)ccc43)nn2)nn1)C(=O)NCC(CO[C@@H]1O[C@H](CO)[C@@H](O)[C@H](O)[C@H]1O)c1ccccc1.O=CO` (stereo partly shown) [FIM47]: the “Change in Emmax for FIM” value in experiment [3] (5 mM D-glucose, GBM15 50 μM, FIM 5 μM, medium B, Ex 470 nm, Emmax 520 nm) is recorded as 130%; in experiment [3] (5 mM D-glucose, GBM40 20 uM, FIM 5 uM, Ex 470/Emmax 520 nm, medium B (10 mM PBS)), 265%; in experiment [3] (10 mM D-glucose, GBM15 50 μM, FIM 5 μM, medium B, Ex 470 nm, Emmax 520 nm) it was 190%; in experiment [3] (10 mM D-glucose, GBM40 20 uM, FIM 5 uM, Ex 470/Emmax 520 nm, medium B (10 mM PBS)) it was 410%; in experiment [3] (20 mM D-glucose, GBM15 50 μM, FIM 5 μM, medium B, Ex 470 nm, Emmax 520 nm) it was 260%; in experiment [3] (20 mM D-glucose, GBM40 20 uM, FIM 5 uM, Ex 470/Emmax 520 nm, medium B (10 mM PBS)), 555%. The “Change in Emmax for FIM” value was found to be 310% in experiment [3] (40 mM D-glucose, GBM15 50 μM, FIM 5 μM, medium B, Ex 470 nm, Emmax 520 nm); 710% in experiment [3] (40 mM D-glucose, GBM40 20 uM, FIM 5 uM, Ex 470/Emmax 520 nm, medium B (10 mM PBS)); 340% in experiment [3] (60 mM D-glucose, GBM15 50 μM, FIM 5 μM, medium B, Ex 470 nm, Emmax 520 nm); 350% in experiment [3] (80 mM D-glucose, GBM15 50 μM, FIM 5 μM, medium B, Ex 470 nm, Emmax 520 nm); 860% in experiment [3] (80 mM D-glucose, GBM40 20 uM, FIM 5 uM, Ex 470/Emmax 520 nm, medium B (10 mM PBS)); 40% in experiment [4] (20 mM D-glucose). Moreover, the “Change in Emmax for FIM” value is given as 100% in experiment [4] (50 mM D-glucose), 120% in experiment [4] (60 mM D-glucose), 160% in experiment [4] (80 mM D-glucose) and 190% in experiment [4] (100 mM D-glucose).

(Values after patent publication US20250172566A1, “SACCHARIDE SENSING SYSTEMS” (CARBOMETRICS LIMITED, priority 2022, published 2025).)
